# Reference: patent US20090156620A1, “[4-(6-FLUORO-7-METHYLAMINO-2,4-DIOXO-1,4-DIHYDRO-2H-QUINAZOLIN-3-YL)-PHENYL]-5-CHLORO-THIOPHEN-2-YL-SULFONYLUREA SALTS, FORMS AND METHODS RELATED THERETO” (Portola Pharmaceuticals, Inc., priority 2007, published 2009)
# Key:
# [1] = molecular target: T1, P2Y12 receptor on platelets (Homo sapiens, UniProt Q9H244); test: platelet ADP receptor binding assay (ARB), inhibition of [3H]2-MeS-ADP binding to platelets
# T1 construct: endogenous in cells; host or cells: whole apyrase-washed human platelets (outdated from hospital blood banks, or fresh)
# T1 sequence (Q9H244 whole entry): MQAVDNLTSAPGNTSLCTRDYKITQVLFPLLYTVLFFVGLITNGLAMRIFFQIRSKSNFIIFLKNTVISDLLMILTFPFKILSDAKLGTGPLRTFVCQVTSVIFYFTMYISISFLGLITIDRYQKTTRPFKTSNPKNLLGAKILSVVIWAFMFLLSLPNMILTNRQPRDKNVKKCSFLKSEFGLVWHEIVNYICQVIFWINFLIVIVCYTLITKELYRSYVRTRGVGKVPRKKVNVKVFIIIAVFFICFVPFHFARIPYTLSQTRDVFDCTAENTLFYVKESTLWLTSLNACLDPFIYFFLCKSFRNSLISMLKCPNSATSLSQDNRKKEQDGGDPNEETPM
# Protocol: 1. The Ability of Candidate Molecules to Inhibit the Binding of [3H]2-MeS-ADP to the P2Y12 Receptor on Platelets was Determined Using a Radioligand Binding Assay
# Utilizing this assay the potency of inhibition of such compounds with respect to [^3H]2-MeS-ADP binding to whole platelets is determined. Under the conditions described in II (3) below, the binding of [^3H]2-MeS-ADP is solely due to the interaction of this ligand with the P2Y12 receptor, in that all the specific binding measured in this assay is compatable with a P2Y12 antagonist (i.e., the specific binding is reduced to background levels by competition with an excess of P2Y12 antagonist, with no competition of binding when a P2Y1 antagonist is pre-incubated with the platelet preparation). […]
# A platelet ADP receptor binding assay (ARB) using the tritiated potent agonist ligand [^3H]2-MeS-ADP (Jantzen, H. M. et al. (1999) Thromb. Hemost. 81:111-117) has been adapted to the 96-well microtiter format. […] Total binding is determined in the absence of test compounds. […] The platelet-bound radioactivity on the filtermats is determined in a scintillation counter (Microbeta 1450, Wallac Inc., Gaithersburg, Md.). Specific binding is determined by subtraction of non-specific binding from total binding, and specific binding in the presence of test compounds is expressed as % of specific binding in the absence of test compound dilutions. […]
# [2] = tested on: ADP-induced human platelet aggregation; test: inhibition of ADP-mediated platelet aggregation in platelet-rich plasma (PRP assay); format: cell-based
# Protocol: The effect of testing the compound according to the invention on ADP-induced human platelet aggregation was assessed in a 96-well microtiter assay (see generally the procedures in Jantzen, H. M. et al. (1999) Thromb. Hemost. 81:111′-117) or standard cuvette light transmittance aggregometry using either human platelet-rich plasma (PRP) or human washed platelets.
# For preparation of human platelet-rich plasma for aggregation assays, human venous blood was collected from healthy, drug-free volunteers into 0.38% sodium citrate (0.013 M, pH 7.0 final). Platelet-rich plasma (PRP) is prepared by centrifugation of whole blood at 160×g for 20 minutes at room temperature. […]
# For cuvette light transmittance aggregation assays, serial dilutions (1:3) of test compounds were prepared in 100% DMSO in a 96 well V-bottom plate (final DMSO concentration in the cuvette was 0.6%). […] The aggregation reaction is recorded for ˜5 mins, and maximum extent of aggregation is determined by the difference in extent of aggregation at baseline, compared to the maximum aggregation that occurs during the five minute period of the assay. Inhibition of aggregation was calculated as the maximum aggregation observed in the presence of inhibitor, compared to that in the absence of inhibitor. […]
# [3] = gravimetric vapour sorption (GVS); format: physicochemical
# Protocol: Sorption isotherms were obtained using a Hiden IGASorp moisture sorption analyser, controlled by CFRSorp software. The sample temperature was maintained at 25° C. by a Huber re-circulating water bath. The humidity was controlled by mixing streams of dry and wet nitrogen, with a total flow rate of 250 ml.min^−1. […] (typical room conditions). A moisture sorption isotherm was performed as outlined below (2 scans giving 1 complete cycle). […] The software uses a least squares minimisation procedure together with a model of the mass relaxation, to predict an asymptotic value. […] The minimum equilibration time was set to 1 hour and the maximum to 4 hours. The sample was recovered after completion of the isotherm and re-analysed by XRPD.
# [4] = accelerated stability test, chemical purity; format: physicochemical; details: one week, 40° C., 75% RH
# Protocol: Purity analysis was performed on an Agilent HP1100 system equipped with a diode array detector and using ChemStation software v9.
# [5] = solid form stability on storage at elevated temperature/humidity, by XRPD; format: physicochemical; details: 75% RH/40° C. for up to 6 months
# Protocol: To 20 mg of [4-(6-fluoro-7-methylamino-2,4-dioxo-1,4-dihydro-2H-quinazolin-3-yl)-phenyl]-5-chloro-thiophen-2-yl-sulfonylurea in 3 mL of the various solvents, was added 1.1 eq. of the base in 1 mL solvent. The mixture was shaken for 2 hours and the solutions were left to evaporate down to half their volume to try to precipitate out the salt. […] Oils/emulsions and opaque liquids were left to maturate at 50° C./ambient in an 8 hour cycles for several weeks. […] Solid samples (crystalline and amorphous) were then filtered, dried and then analyzed to judge their purity, crystallinity and stability. Solids were analysed by ^1H NMR to confirm salt formation and analyzed by ion chromatography and TGA to obtain the stoichiometry of the salt.
# [6] = polymorphism experiments, form B slurried in solvents; format: physicochemical; details: ca. 50 mg in ten volumes, ambient, two hours
# Text: The propensity of [4-(6-fluoro-7-methylamino-2,4-dioxo-1,4-dihydro-2H-quinazolin-3-yl)-phenyl]-5-chloro-thiophen-2-yl-sulfonylurea potassium salt form B to form polymorphs was studied. Form B (a hemi-hydrate) was slurried in a range of solvents (neat and mixtures). The solvents were chosen based on their pharmaceutical acceptability and also a range of functional groups and polarities such as alcohols, ethers and esters. To encourage hydrate formation, aqueous mixtures were also chosen. The solvents used are detailed in Table 7.
# Approximately 50 mg of [4-(6-fluoro-7-methylamino-2,4-dioxo-1,4-dihydro-2H-quinazolin-3-yl)-phenyl]-5-chloro-thiophen-2-yl-sulfonylurea potassium salt, form B was suspended in ten volumes of the solvents detailed in table 7 and stirred at ambient for two hours. […] The suspensions were filtered under vacuum and analysed by XRPD. Most of the solids remained as form B, with a 1:1 acetone/water mixture leading to a subtle change in solid form. The 1:1 tetrahydrofuran/water mixture generated a mixture of that subtly different form and form B.
# To all the form B samples a further aliquot of five volumes of appropriate solvent was added and the suspensions were slurried at 50° C. for 4 hours then cooled to ambient for 4 hours. This cycle was repeated for a total of 24 hours, after which time the suspensions were filtered under vacuum and analysed by XRPD.
# [7] = solid form stability of API dispersed in aqueous vehicle; format: physicochemical; details: dry ground API dispersed into aqueous 0.1M phosphate buffer
# Text: It was observed that after grinding the API with the diluent of Tox formulation, i.e., 0.5% methylcellulose and 0.1M phosphate sodium buffer at pH7.4, the drug particles became very dense and quickly precipitated during transfer and dosing. […] In addition, if only dry grinding is used to reduce the particle size of the API first and subsequently, the API is quickly dispersed into aqueous 0.1M phosphate buffer without applying significant mechanical stress, the solid form of the API can be maintained in form B for at least 6 hours.
Molecule,IC50 [1] [µM],IC50 [2] [µM],hygroscopicity [3],RH range in which the 2.5 hydrate is stable ([3]; 25° C.),dehydration ([3]; 25° C.),change in the chemical purity [4],XRPD after the GVS experiment [3],change in solid state [5],solvents that dissolved the salt [6],time the solid form is maintained in form B [7]
"CNc1cc2[nH]c(=O)n(-c3ccc(NC(=O)NS(=O)(=O)c4ccc(Cl)s4)cc3)c(=O)c2cc1Cl [Example 3, [4-(6-chloro-7-methylamino-2,4-dioxo-1,4-dihydro-2H-quinazolin-3-yl)-phenyl]-5-chloro-thiophen-2-1-sulfonylurea]",> 0.5,> 30,,,,,,,,
"CNc1cc2[nH]c(=O)n(-c3ccc(NC(=O)NS(=O)(=O)c4ccc(Cl)s4)cc3)c(=O)c2cc1F.[K] [Form A of the potassium salt, [4-(6-fluoro-7-methylamino-2,4-dioxo-1,4-dihydro-2H-quinazolin-3-yl)-phenyl]-5-chloro-thiophen-2-yl-sulfonylurea potassium salt 2.5 hydrate]",,,less hygroscopic than the amorphous form of the sodium salt,20-90 % RH,dehydrates between 20 and 0% RH,No change,,,,
"[4-(6-fluoro-7-methylamino-2,4-dioxo-1,4-dihydro-2H-quinazolin-3-yl)-phenyl]-5-chloro-thiophen-2-yl-sulfonylurea potassium salt hemi hydrate [Form B of the potassium salt]",,,non-hygroscopic,,,,no phase change,no change in solid state,2-methoxyethanol was the only solvent that dissolved the potassium salt,at least 6 hours
